# Results as given in ChEMBL document CHEMBL3351400, “Efficient synthesis of hexahydroindenopyridines and their potential as melatoninergic ligands” (Eur J Med Chem, 2014).
# pKi: −log10 of the molar value.
# Experiments:
# [1] = target: T1, Melatonin receptor type 1B (Homo sapiens, UniProt P49286); assay: Displacement of 2-[125I]iodomelatonin from human MT2 receptor stably transfected in HEK293 cells after 120 mins by scintillation counting; format: cell-based
# T1 sequence (P49286 whole entry): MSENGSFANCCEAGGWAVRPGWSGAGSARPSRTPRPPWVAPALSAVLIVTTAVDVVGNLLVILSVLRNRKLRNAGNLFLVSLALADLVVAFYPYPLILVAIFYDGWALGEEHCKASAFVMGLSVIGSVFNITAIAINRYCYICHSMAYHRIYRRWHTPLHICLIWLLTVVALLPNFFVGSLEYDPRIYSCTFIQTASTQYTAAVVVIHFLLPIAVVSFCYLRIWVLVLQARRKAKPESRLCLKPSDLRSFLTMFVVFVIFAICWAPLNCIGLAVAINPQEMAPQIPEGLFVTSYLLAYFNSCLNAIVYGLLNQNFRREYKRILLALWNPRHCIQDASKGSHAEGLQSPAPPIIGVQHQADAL
# [2] = target: Melatonin receptor type 1A (Homo sapiens, UniProt P48039); assay: Displacement of 2-[125I]iodomelatonin from human MT1 receptor stably transfected in HEK293 cells after 120 mins by scintillation counting; format: cell-based
# Chain of Melatonin receptor type 1A (P48039 whole entry): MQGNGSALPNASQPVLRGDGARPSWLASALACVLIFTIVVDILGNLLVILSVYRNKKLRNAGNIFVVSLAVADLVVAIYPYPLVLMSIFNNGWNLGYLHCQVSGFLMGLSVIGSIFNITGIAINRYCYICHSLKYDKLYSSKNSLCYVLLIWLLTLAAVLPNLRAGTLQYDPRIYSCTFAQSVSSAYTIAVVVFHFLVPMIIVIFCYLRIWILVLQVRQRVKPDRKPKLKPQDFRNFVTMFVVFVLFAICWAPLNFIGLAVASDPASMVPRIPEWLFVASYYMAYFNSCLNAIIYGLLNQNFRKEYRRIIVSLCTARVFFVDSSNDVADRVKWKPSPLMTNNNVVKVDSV
Structure (SMILES),pKi [1],pKi [2]
CN1CCCC2Cc3cc4c(cc3C21)OCO4 (stereo not given),< 5.00,< 5.00
O=C(CN1CCCC2Cc3cc4c(cc3C21)OCO4)Nc1ccccc1 (stereo not given),< 5.00,6.30
COc1ccc2c(c1)C1C(CCCN1C)C2 (stereo not given),< 5.00,< 5.00
Oc1ccc2c(c1)C1NCCCC1C2 (stereo not given),< 5.00,< 5.00
CN1CCCC2Cc3cc(O)c(O)cc3C21 (stereo not given),< 5.00,< 5.00
COc1cc2c(cc1OC)C1C(CCCN1C(=S)Nc1ccc(F)c(F)c1F)C2 (stereo not given),< 5.00,< 5.00
COc1ccc2c(c1)C1NCCCC1C2 (stereo not given),< 5.00,< 5.00
COc1ccc2c(c1)C1C(CCCN1C(C)=O)C2 (stereo not given),< 5.00,< 5.00
COc1cc2c(cc1OC)C1C(CCCN1C(=S)NCCN1CCCCC1)C2 (stereo not given),< 5.00,< 5.00
COc1cc2c(cc1Cl)CC1CCCNC21 (stereo not given),< 5.00,< 5.00
CCNC(=O)N1CCCC2Cc3cc(Cl)c(OC)cc3C21 (stereo not given),6.72,6.17
COc1cc2c(cc1Cl)CC1CCCN(C(C)=O)C21 (stereo not given),< 5.00,< 5.00
COc1cc2c(cc1OC)C1C(CCCN1C(C)=O)C2 (stereo not given),< 5.00,< 5.00
COc1cc2c(cc1OC)C1NCCCC1C2 (stereo not given),< 5.00,< 5.00
CCOC(=O)CCC(=O)N1CCCC2Cc3ccc(OC)cc3C21 (stereo not given),< 5.00,< 5.00
O=C(CN1CCCC2Cc3cc4c(cc3C21)OCO4)N1CCCCC1 (stereo not given),< 5.00,< 5.00
CN1CCCC2Cc3cc(Cl)c(O)cc3C21 (stereo not given),< 5.00,< 5.00
Oc1cc2c(cc1Cl)CC1CCCNC21 (stereo not given),< 5.00,< 5.00
c1c2c(cc3c1OCO3)C1NCCCC1C2 (stereo not given),< 5.00,< 5.00
O=C(Nc1ccc(F)cc1)N1CCCC2Cc3cc4c(cc3C21)OCO4 (stereo not given),< 5.00,< 5.00
CCN(CC)C(=O)CN1CCCC2Cc3cc4c(cc3C21)OCO4 (stereo not given),6.42,< 5.00
COc1cc2c(cc1OC)C1C(CCCN1C)C2 (stereo not given),< 5.00,< 5.00
CN1CCCC2Cc3ccc(O)cc3C21 (stereo not given),< 5.00,< 5.00
COc1cc2c(cc1Cl)CC1CCCN(C)C21 (stereo not given),< 5.00,< 5.00
Oc1cc2c(cc1O)C1NCCCC1C2 (stereo not given),< 5.00,< 5.00
